What is called pIC50 is −log10 of the IC50, conventionally taken in molar units.

Drawing on patent US20250066386A1, “INHIBITORS OF KRAS” (BIOMEA FUSION, INC., priority 2022, published 2025), this text covers IC50 and ring closure, isolated yield for seven molecules.

The test system of data set [1] is human KRAS G12D mutated cell line SUIT-2. Put plainly: KRas G12D in vitro inhibitory activity: cell proliferation, CellTiter-Glo. Type of data set: cell-based. The note with it: 7 day inhibition of cell proliferation, medium and compound renewed on day 3, CellTiter-Glo luminescence. From the text:
(§1) The present example evaluates the ability of compounds provided herein to inhibit proliferation of KRAS mutant cells.
The proliferation inhibitory effect was investigated in the human KRAS G12D mutated cell line SUIT-2 (Iwamura et al., 1987, Jpn. J. Cancer Res. 78.54-62; JCRB catalog no. JCRB1094). Cells were maintained in RPMI-1640 medium (ThermoFisher catalog no. 61870036) supplemented with 10% of Heat Inactivated FBS (ThermoFisher catalog no. A31605) and 1% Pen-Strep (ThermoFisher catalog no. 10378016) and cultured at 37° C. in a humidified incubator with 5% CO2. Cells were grown by adhering to culture flasks, and maintained at 70%-80% confluency.
(§2) ATP is present in all metabolically active cells and is considered as a marker for viable cells. The number of metabolically active live cells in culture was determined using the CellTiter-Glo kit (Promega catalog no. G7572), an ATP monitoring system based on the production of luminescence by the reaction of ATP with added UltraGlo® recombinant luciferase (Kawano et al., 2016, PLOS One, 8; 11(7):e0158888), according to the supplier's experimental recommendations. The cell proliferation assay was based on a 96 well plate format.
Test compounds were dissolved at 10 mM in DMSO (Sigma catalog no. D8418; purity >99.9%) and stored at −20° C. Eight concentrations of test compound were assessed in duplicate in an individual test occasion in parallel in the selected cell lines. MRTX-849 and AMG-510 were used as reference compounds and tested in duplicate at eight concentrations. 100% of proliferation is represented by the untreated cells (0.1% DMSO).
On the day of the experiment (TO), cells were detached with TrypLE (ThermoFisher catalog no. 12604054) quantified using the cell viability analyzer NucleoCounter (Chemometec NC-200) and resuspended in fresh medium at a cell density of about 1000 cells per 200 μL medium. 200 μL of cell suspension were added to each well of a 96 well plate.
Two 2 hours after seeding cells, compounds were added at desired concentrations using a D300e compound dispenser (Life Sciences Tecan D300) with shaking after each compound addition. Assay plates were incubated at 37° C. in a humidified incubator with 5% CO2.
On day 3 (T3), 150 μL of growth media was removed from each well of the assay plates and replaced with 150 uL fresh growth media, and fresh compounds added using a D300e compound dispenser (Life Sciences Tecan D300) at desired concentrations with shaking between each compound addition. […] Luminescence was read using a GloMax GM300 plate reader (Promega) using the luminescence for 96 well plate standard protocol. […]
(§3) Results were analyzed by GraphPad (Prism) and IC50 values were calculated by non-linear regression using four parameter-logistic equation. […]

Data set [2] deals with human KRAS G12C mutated cell line MIA PaCa-2. Put plainly: KRas G12C in vitro inhibitory activity: cell proliferation, CellTiter-Glo. It counts as cell-based.
From the text: as §1
The inhibitory effect on cell proliferation was investigated in the human KRAS G12C mutated cell line MIA PaCa-2 (Yunis et al., 1977, Int. J. Cancer 19(1):128-135; ATCC catalog no. CRL-1420). Cells were maintained in RPMI-1640 medium (ThermoFisher catalog no. 61870036) supplemented with 10% of Heat Inactivated FBS (ThermoFisher catalog no. A31605) and 1% Pen-Strep (ThermoFisher catalog no. 10378016) and cultured at 37° C. in a humidified incubator with 5% CO2. Cells were grown by adhering to culture flasks, and maintained at 70%-80% confluency.
as §2
Test compounds were dissolved at 10 mM in DMSO (Sigma catalog no. D8418; purity >99.9%) and stored at −20° C. Eight concentrations of test compound were assessed in duplicate in an individual test occasion in parallel in the selected cell lines. MRTX-849 and AMG-510 were used as reference compounds and tested in duplicate at eight concentrations. 100% of proliferation is represented by the untreated cells (0.2% DMSO).
On the day of the experiment (TO), cells were detached with TrypLE (ThermoFisher catalog no. 12604054), quantified using the cell viability analyser NucleoCounter (Chemometec NC-200) and resuspended in fresh medium at a cell density of about 5000 cells per 200 μL medium. 200 μL of cell suspension were added to each well of a 96 well plate.
Two hours after seeding cells, compounds were added at desired concentrations using a D300e compound dispenser (Life Sciences Tecan D300) with shaking after each compound addition. Assay plates were incubated at 37° C. in a humidified incubator with 5% CO2.
(§4) To measure 3 day inhibition of cell proliferation on day 3 (T3), assay plates were equilibrated to room temperature for approximately 15 min, and the Promega CellTiterGlo® reagent was added at 40 μL/well. Contents were mixed for 5 min on an orbital shaker to induce cell lysis, and then incubated at room temperature for an additional 10 min in the dark to stabilize the luminescent signal. Luminescence was read using a GloMax GM300 plate reader (Promega) using the luminescence for 96 well plate standard protocol.
as §4, with “measure 7” for “measure 3”, “(T3), 150 μL of growth media was removed from each well of the assay plates and replaced with 150 uL fresh growth media, and fresh compounds added using a D300e compound dispenser (Life Sciences Tecan D300) at desired concentrations with shaking between each compound addition. Assay plates were incubated at 37° C. in a humidified incubator with 5% CO2. On day 7 (T7)” for “(T3),”
Data was expressed as % of inhibition compared to the 0.2% DMSO negative no drug control, and is calculated as follows: % inhibition=100−[(RLU sample)×100/(RLU average controls*)], where * indicates the average for 0.2% DMSO.
as §3
In general terms: ATP-based viability assays read luminescence as a measure of living cells.

For data set [3] the following is noted: 18-membered ring, DCM, 25.0 °C.
Where [4] appears, read: Homo sapiens, MIA PaCa-2, 72 h, 3 day inhibition of cell proliferation, CellTiter-Glo luminescence, read-out: MIA PaCa-2 Day 3 IC50.
Setting [5] is: Homo sapiens, MIA PaCa-2, 7 day inhibition of cell proliferation, medium and compound renewed on day 3, CellTiter-Glo luminescence, read-out: MIA PaCa-2 Day 7 IC50.

Each structure is given as a SMILES string. pIC50: −log10 of the molar value. Read-outs that look alike come from different tables or passages of the source.

Turning to `CCn1c(-c2cccnc2[C@H](C)OC)c2c3cc(ccc31)-c1cccc(c1)C[C@H](NC(=O)[C@H](C(C)C)N(C)C(=O)[C@H]1CCN(C(C)C#CC(=O)N(C)C)C1)C(=O)N1CCC[C@H](N1)C(=O)OCC(C)(C)C2` (some centres unmarked) [Compound 5], the pIC50 is below 7.00 in data set [1], 8.00 to 9.00 in data set [2] (setting [4]) and 7.00 to 8.00 in data set [2] (setting [5]).

Turning to `CCn1c(-c2cccnc2[C@H](C)OC)c2c3cc(ccc31)-c1cccc(c1)C[C@H](NC(=O)[C@H](C(C)C)N(C)C(=O)[C@H]1CCN(C(=O)C#CC(=O)N(C)C)C1)C(=O)N1CCC[C@H](N1)C(=O)OCC(C)(C)C2` (atropisomer, axis not shown) [Compound 4], the pIC50 in data set [1] and in data set [2] (setting [5]) was below 7.00 in each case.

Consider `CCn1c(-c2cccnc2[C@H](C)OC)c2c3cc(ccc31)-c1cccc(c1)C[C@H](NC(=O)[C@H](C(C)C)N(C)C(=O)[C@H]1CCN(CC#CC(=O)N(C)C)C1)C(=O)N1CCC[C@H](N1)C(=O)OCC(C)(C)C2` (atropisomer, axis not shown) [Compound 3, (3S)-1-(4-(dimethylamino)-4-oxobut-2-yn-1-yl)-N-((2S)-1-(((6^3S,4S)-1^1-ethyl-1^2-(2-((S)-1-methoxyethyl)pyridin-3-yl)-10,10-dimethyl-5,7-dioxo-6^1,6^2,6^3,6^4,6^5,6^6-hexahydro-1^1H-8-oxa-1(5,3)-indola-6(1,3)-pyridazina-2(1,3)-benzenacycloundecaphane-4-yl)amino)-3-methyl-1-oxobutan-2-yl)-N-methylpyrrolidine-3-carboxamide], for which the pIC50 is below 7.00 in data set [1], 8.00 to 9.00 in data set [2] (setting [4]) and 8.00 to 9.00 in data set [2] (setting [5]).

For `CCn1c(-c2cccnc2[C@H](C)OC)c2c3cc(ccc31)-c1cccc(c1)C[C@H](NC(=O)OC(C)(C)C)C(=O)N1CCC[C@H](C1)C(=O)OCC(C)(C)C2`, the ring closure, isolated yield in data set [3] (from CCn1c(-c2cccnc2[C@H](C)OC)c(CC(C)(C)CO)c2cc(-c3cccc(C[C@H](NC(=O)OC(C)(C)C)C(=O)N4CCC[C@@H](C(=O)O)C4)c3)ccc21, ester bond, EDCI/HOBT/DIPEA, 9.6 mM, 16.0 h, 2 steps) amounted to 62%; in data set [3] (from CCn1c(-c2cccnc2[C@H](C)OC)c(CC(C)(C)CO)c2cc(-c3cccc(C[C@H](NC(=O)OC(C)(C)C)C(=O)N4CCC[C@@H](C(=O)O)C4)c3)ccc21, ester bond, EDCI/HOBT/DIPEA, 9.9 mM, 16.0 h, 2 steps), 56%.

In data set [3] (from CCn1c(-c2cccnc2[C@H](C)OC)c(CC(C)(C)OC(=O)C[C@@H]2CCCNC2)c2cc(-c3cccc(C[C@H](NC(=O)OCc4ccccc4)C(=O)O)c3)ccc21, amide bond, T3P/DIPEA, 32.3 mM, 1.0 h, 3 steps), `CCn1c(-c2cccnc2[C@H](C)OC)c2c3cc(ccc31)-c1cccc(c1)C[C@H](NC(=O)OCc1ccccc1)C(=O)N1CCC[C@@H](CC(=O)OC(C)(C)C2)C1` came in with a ring closure, isolated yield of 44%.

As for `CCn1c(-c2cccnc2[C@H](C)OC)c2c3cc(ccc31)-c1cccc(c1)C[C@H](NC(=O)[C@H](C(C)C)N(C)C(=O)[C@H]1CCN(C(=O)C#CCN3CCOCC3)C1)C(=O)N1CCC[C@H](C1)C(=O)OCC(C)(C)C2` (atropisomer, axis not shown) [Compound 1, (3S)—N-((2S)-1-(((6^3R,4S)-1^1-ethyl-1^2-(2-((S)-1-methoxyethyl)pyridin-3-yl)-10,10-dimethyl-5,7-dioxo-1^1H-8-oxa-1(5,3)-indola-6(1,3)-piperidina-2(1,3)-benzenacycloundecaphane-4-yl)amino)-3-methyl-1-oxobutan-2-yl)-N-methyl-1-(4-morpholinobut-2-ynoyl)pyrrolidine-3-carboxamide], the pIC50 in data set [1] is below 7.00; in data set [2] (7 day inhibition of cell proliferation, medium and compound renewed on day 3, CellTiter-Glo luminescence, read-out: MIA PaCa-2 Day 7 IC50) it was 7.00 to 8.00.

With `CCn1c(-c2cccnc2[C@H](C)OC)c2c3cc(ccc31)-c1cccc(c1)C[C@H](NC(=O)OC(C)(C)C)C(=O)N1CC[C@@H](C1)C(=O)OCC(C)(C)C2`, the ring closure, isolated yield in data set [3] (from CCn1c(-c2cccnc2[C@H](C)OC)c(CC(C)(C)CO)c2cc(-c3cccc(C[C@H](NC(=O)OC(C)(C)C)C(=O)N4CC[C@H](C(=O)O)C4)c3)ccc21, ester bond, EDC/HOBT/DIPEA, 47.2 mM, 16.0 h, 2 steps) is 60%.
